# Laboratory results from article PMC9159852, “Synthesis, Structure, and Biologic Activity of Some Copper, Nickel, Cobalt, and Zinc Complexes with 2-Formylpyridine N^4-Allylthiosemicarbazone” (Bioinorganic Chemistry and Applications, 2022).
# Where two headings read alike, the source gives them in different places.
# How the values were obtained:
# [1] = system: normal kidney epithelial (MDCK) cell line; experiment: Antiproliferative activity (MTS and Resazurin assays), MDCK normal cell line; type: cell-based
# Description: (§1) The antiproliferative activity of the studied substances was determined toward a series of cancer cell lines (HL-60 (ATCC CCL-240), BxPC-3 (ATCC CRL-1687), HeLa (ATCC CCL-2), RD (ATCC CCL-136)), and a normal cell line (MDCK (ATCC CCL-34)). These cell lines were cultured in accordance with the previously described method. Determination of the number of viable cells after cultivation in the presence of various concentrations of the studied substances was carried out by the MTS and Resazurin assays according to the previously described method. The 10-mM stock solutions of the studied compounds as well as the reference compound (doxorubicin) were prepared by dissolving 10 μmol of the corresponding compound in 1 mL of DMSO. The 0.1, 1, 10, and 100 μM solutions were prepared by dilution of the stock solutions with the corresponding medium and used for the study of antiproliferative activity.
# [2] = system: human leukemia HL-60 cell line; experiment: Antiproliferative activity (MTS and Resazurin assays), HL-60; type: cell-based; settings: for inhibition at 0.1 µM / inhibition at 1 µM / inhibition at 10 µM: read-out: Inhibition of cell proliferation, (%); for IC50: HL-60, Table 3; for SI (selectivity index): IC50(MDCK)/IC50(HL-60)
# Description: as §1
# [3] = system: human muscle rhabdomyosarcoma (RD) cell line; experiment: Antiproliferative activity (MTS and Resazurin assays), RD; type: cell-based; settings: for IC50: RD; for SI (selectivity index): IC50(MDCK)/IC50(RD)
# Description: as §1
# [4] = system: human epithelial pancreatic adenocarcinoma (BxPC-3) cell line; experiment: Antiproliferative activity (MTS and Resazurin assays), BxPC-3; type: cell-based; settings: for SI (selectivity index): IC50(MDCK)/IC50(BxPC-3)
# Description: as §1
# [5] = Acute toxicity assay against Daphnia magna; settings: Daphnia magna, in vivo, pH 7.5
# Description: (§2) The general toxicity of the tested compounds was evaluated using Daphnia magna (Straus, 1820). Daphnia magna was originated from a culture maintained parthenogenetically at the Institute of Zoology (Laboratory of Systematics and Molecular Phylogeny).
# (§3) The test design was based on ISO 6341 : 2012. The test-organisms Daphnia magna Straus were fed with Chlorella vulgaris. These unicellular algae were grown using aseptic technology to exclude contamination of the culture by bacteria, algae or protozoa. Chlorella vulgaris were cultivated in Prat's growth medium containing KNO3 (1 μM), MgSO4·7H2O (40 μM), K2HPO4·3H2O (400 μM), FeCl3·6H2O (3.6 μM) in H2O distilled (adjusted the pH to 7.0, autoclaved and stored at 5°C).
# (§4) D. magna was maintained in aerated aqueous straw infusion growth media supplemented with CaCl2 ([…]), NaHCO3 (2.59 g/L), KCl (0.23 g/L), and MgSO4, 7H2O (4.93 g/L). (pH∼7.5 ± 0.2; O2 ≥ 6.0 mg/L).
# (§5) Juveniles were selected according to their size and kept in fresh medium for 24 h. D. magna was cultured in Costar® 24-well culture clear sterile multiple well plates covered by a lid to prevent the possibility of contamination and evaporation but at the same time to allow gaseous exchange between air and culture medium. Each well contained 10 daphnids in 1000 μL final volume of each dilution of the tested compounds.
# (§6) The bioassay was then repeated at the concentrations ranging from 0.1 to 100 μM (0.1, 1, 10, and 100 μM) in order to determine LC50 for each compound, including doxorubicin (the positive control). Aqueous straw infusion growth media was used to dilute the stock solutions to the required concentrations. […] A 0.1% solution of DMSO in aerated medium (pH∼7.5 ± 0.2; O2 ≥ 6.0 mg/L) was used as a negative control. Throughout the experiment, the juvenile daphnids were incubated at 22 ± 2 °C, using a 16 h/8 h light/dark cycle (500–1000 lx). The mobility (viability) of the test organisms was observed after the 24-h exposure. The experiment was performed in triplicate.
# (§7) The percentage of viability (V (%)) of Daphnia magna was calculated according to the formula:(1) V%=Nsample/Ncontrol×100.
# (§8) N - Number of viability of Daphnia magna.
# (§9) The compounds median lethal concentration that kills 50% of the juvenile daphnids (LC50) values were calculated from the dose-response equation determined by the least squares fit method.
# [6] = system: human cervical epithelial (HeLa) cell line; experiment: Antiproliferative activity (MTS and Resazurin assays), HeLa; type: cell-based; settings: for IC50: HeLa; for SI (selectivity index): IC50(MDCK)/IC50(HeLa)
# Description: as §1
# [7] = system: Candida albicans (ATCC 10231); experiment: Antifungal activity, serial dilutions in liquid broth, C. albicans; type: cell-based
# Description: (§10) Antibacterial and antifungal properties of the studied substances were determined on a series of standard strains of Gram-positive microorganisms (Staphylococcus aureus (ATCC 25923)), Gram-negative microorganisms (Escherichia coli (ATCC 25922)), and fungi (Candida albicans (ATCC 10231)) using the method of serial dilutions in liquid broth. Stock solutions of the studied compounds as well as the reference compounds (furacillinum and nystatin) were prepared by dissolving 10 mg of the corresponding compound in 1 mL of DMSO. After that, the starting solutions (1 mg/mL) were prepared by tenfold dilution of the stock solution with nutrition medium (2% of peptonate bullion). The next dilutions were prepared by serial double dilution with the nutrition medium.
# [8] = system: Staphylococcus aureus (ATCC 25923); experiment: Antibacterial activity, serial dilutions in liquid broth, S. aureus; type: cell-based; settings: S. aureus (G+)
# Description: as §10
# Daphnia magna = experiment: Acute toxicity assay against Daphnia magna; settings: 24 h exposure; for LC50: Daphnia magna
# Description: as §2, §3, §4, §5, §6, §7, §8, §9
# [9] = system: Escherichia coli (ATCC 25922); experiment: Antibacterial activity, serial dilutions in liquid broth, E. coli; type: cell-based; settings: E. coli (G-)
# Description: as §10
# [10] = Antiradical activity, ABTS•+ method; settings: read-out: IC50 toward ABTS•+ radical cation
# Description: The ABTS^•+ method was applied for the determination of antiradical activity of the studied substances. Standard solutions of ABTS^•+ radical cations and tested substances as well as the conditions of spectrophotometric measurements and calculations of inhibition were made as described. The 10-mM stock solutions of the studied compounds as well as the reference compound (trolox) were prepared by dissolving 10 μmol of the corresponding compound in 1 mL of DMSO. The 1, 10, 100, and 1000 μM solutions were prepared by the dilution of stock solutions with DMSO. After that, 20 μL of each tested compound solutions was transferred in a 96-well microtiter plate, and 180 μL of ABTS^•+ working solution was added to receive solutions with final concentrations of tested compounds 0.1, 1, 10, and 100, respectively.
# [11] = other: exposure in the test medium (immersion)
SMILES,SI (selectivity index) [2],SI (selectivity index) [3],SI (selectivity index) [4],SI (selectivity index) [6],IC50 [1] [µM],"Inhibition of cell proliferation, (%) ([2]; HL-60, 0.1 μM)","Inhibition of cell proliferation, (%) ([2]; HL-60, 1 μM)","Inhibition of cell proliferation, (%) ([2]; HL-60, 10 μM)",IC50 [2] [µM],IC50 [3] [µM],MIC [7] [µg/mL],IC50 ([4]; BxPC-3) [µM],MBC [8] [µg/mL],MIC [8] [µg/mL],"V, (%) percentage of viability of Daphnia magna (Daphnia magna; 0.1 μM) [%]","V, (%) percentage of viability of Daphnia magna (Daphnia magna; 1 μM) [%]","V, (%) percentage of viability of Daphnia magna (Daphnia magna; 10 μM) [%]","V, (%) percentage of viability of Daphnia magna (Daphnia magna; 100 μM) [%]",LC50 (Daphnia magna) [µM],MIC [9] [µg/mL],also measured
"COc1cccc2c1C(=O)c1c(O)c3c(c(O)c1C2=O)C[C@@](O)(C(=O)CO)C[C@@H]3O[C@H]1C[C@H](N)[C@H](O)[C@H](C)O1 [Doxorubicin, doxorubicin, reference compound]",35.5,0.44,1.9,0.71,–,–,–,–,–,–,–,–,–,–,–,–,–,–,–,–,"IC50 ([1]; Canis lupus familiaris): 7.1 ± 0.3 µM; inhibition at 0.1 µM ([2]; Homo sapiens, HL-60, 0.1 μM): 16.5 ± 1.8%; inhibition at 1 µM ([2]; Homo sapiens, HL-60, 1 μM): 92.9 ± 0.7%; inhibition at 10 µM ([2]; Homo sapiens, HL-60, 10 μM): 95 ± 0.6%; IC50 ([2]; Homo sapiens): 0.2 ± 0.1 µM; IC50 ([3]; Homo sapiens): 16.2 ± 0.6 µM; IC50 ([4]; Homo sapiens, BXPC-3): 3.7 ± 0.3 µM; viability at 24 h, 0.1 µM [5, 11]: 87.2 ± 7.3%; viability at 24 h, 1 µM [5, 11]: 76.9 ± 7.3%; viability at 24 h, 10 µM [5, 11]: 25.6 ± 7.3%; viability at 24 h, 100 µM [5, 11]: 0%; LC50 at 24 h [5]: 3.3 ± 1.1 µM; IC50 ([6]; Homo sapiens): 10 ± 0.4 µM"
C=CCNC(=S)N/N=C/c1cccnc1 [HL^a],–,–,–,–,–,–,–,–,–,–,–,–,–,–,–,–,–,–,–,–,"inhibition at 0.1 µM ([2]; Homo sapiens, HL-60, 0.1 μM): 0.9 ± 0.2%; inhibition at 1 µM ([2]; Homo sapiens, HL-60, 1 μM): 1.5 ± 0.5%; inhibition at 10 µM ([2]; Homo sapiens, HL-60, 10 μM): 6.1 ± 0.3%"
"C=CCNC(=NN=Cc1ccccn1)[S][Cu][Cl] [compound 2, [Cu(L)Cl]]",30,23,60,7.5,3 ± 0.4,40.2 ± 2.8,99.2 ± 0.2,99.4 ± 0.6,0.1 ± 0.06,0.13 ± 0.02,15.6,0.05 ± 0.02,0.244,0.122,102.6 ± 0.0,97.4 ± 7.3,0.0,0.0,3.5 ± 2.8,3.91,MFC [7]: 31.3 µg/mL; MBC [9]: 7.81 µg/mL; IC50 [6]: 0.4 ± 0.03 µM; IC50 [10]: > 100 µM
"C=CCNC(=NN=Cc1ccccn1)[S][Cu][Br] [compound 3, [Cu(L)Br]]",62,31,103,21,6.2 ± 1.4,24.5 ± 1.9,100.0 ± 0.3,100.0 ± 0.1,0.1 ± 0.04,0.2 ± 0.1,7.81,0.06 ± 0.01,0.488,0.244,102.6 ± 0.0,97.4 ± 7.3,0.0,0.0,3.5 ± 2.8,7.81,MFC [7]: 15.6 µg/mL; MBC [9]: 15.6 µg/mL; IC50 [6]: 0.3 ± 0.03 µM; IC50 [10]: 43 ± 2.1 µM
"C=CCNC(=NN=Cc1ccccn1)[S][Cu][O]C(C)=O.C=CCNC(=NN=Cc1ccccn1)[S][Cu][O]C(C)=O.O.O.O.O [compound 4, [Cu2(L)2(CH3COO)2]·4H2O]",20,40,100,10,2 ± 0.2,32.0 ± 2.3,99.8 ± 0.2,100.0 ± 0.2,0.1 ± 0.02,0.05 ± 0.01,31.3,0.02 ± 0.01,0.488,0.244,76.9 ± 7.3,66.7 ± 7.3,0.0,0.0,1.3 ± 0.5,1.95,MFC [7]: 62.5 µg/mL; MBC [9]: 3.91 µg/mL; IC50 [6]: 0.2 ± 0.02 µM; IC50 [10]: 40.3 ± 1.8 µM
"C=CCNC(=S)NN=Cc1ccccn1.C=CCNC(=S)NN=Cc1ccccn1.O.[Cl-].[Cl-].[Ni+2] [compound 5, [Ni(HL)2]Cl2·H2O]",>1000,>34,>27,–,> 100,54.5 ± 1.1,94.9 ± 0.7,108.5 ± 0.5,0.09 ± 0.01,2.9 ± 0.4,500,3.6 ± 0.9,31.3,15.6,102.6 ± 0.0,102.6 ± 0.0,97.4 ± 7.3,87.2 ± 7.3,> 100,1000,Effect on growth and proliferation of normal MDCK cell line (in words) [1]: practically do not affect the growth and proliferation; IC50 [6]: > 100 µM; IC50 [10]: 8.6 ± 0.1 µM
"C=CCNC([S-])=NN=Cc1ccccn1.C=CCNC([S-])=NN=Cc1ccccn1.[Cl-].[Co+3] [compound 6, [Co(L)2]Cl]",–,–,>24,>40,> 100,4.1 ± 0.3,6.9 ± 1.7,24.1 ± 0.6,> 10,> 100,62.5,4.1 ± 0.5,125,62.5,97.4 ± 7.3,97.4 ± 7.3,92.3 ± 0.0,35.9 ± 7.3,65.4 ± 11.8,250,Effect on growth and proliferation of normal MDCK cell line (in words) [1]: practically do not affect the growth and proliferation; MFC [7]: 250 µg/mL; MBC [9]: 500 µg/mL; IC50 [6]: 2.5 ± 0.5 µM; IC50 [10]: > 100 µM
